The term IC50 denotes the concentration at which inhibition is half-maximal. Usually AC50 stands for the concentration at which the activity in the assay is half-maximal.

SMILES strings stand for the structures. Calls of active or inactive are those of the source.

The record followed here is ChEMBL document CHEMBL1201862, “PubChem BioAssay data set” (2004).

In test [1] the test system is HEK293. As to the kind of experiment: cells. Type of test: functional, cell-based. As to conditions: Homo sapiens.
Test [2] has as its target T1, Nuclear receptor subfamily 0 group B member 1 (Homo sapiens, UniProt P51843).
T1 sequence (P51843 whole entry): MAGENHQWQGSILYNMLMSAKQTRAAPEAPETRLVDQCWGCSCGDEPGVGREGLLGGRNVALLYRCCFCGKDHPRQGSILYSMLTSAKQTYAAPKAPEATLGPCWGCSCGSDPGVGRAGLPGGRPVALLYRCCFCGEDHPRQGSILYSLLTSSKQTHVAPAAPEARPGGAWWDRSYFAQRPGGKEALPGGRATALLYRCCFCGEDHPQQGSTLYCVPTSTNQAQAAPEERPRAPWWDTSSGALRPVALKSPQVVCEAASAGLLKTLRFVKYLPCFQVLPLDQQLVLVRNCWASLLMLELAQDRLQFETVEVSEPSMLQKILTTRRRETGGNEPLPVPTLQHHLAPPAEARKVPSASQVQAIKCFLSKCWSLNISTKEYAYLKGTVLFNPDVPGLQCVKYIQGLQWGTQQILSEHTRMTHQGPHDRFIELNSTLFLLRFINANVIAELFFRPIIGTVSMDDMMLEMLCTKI
As to the kind of experiment: Luminescence-based cell-based high throughput dose response assay for inhibitors of the orphan nuclear receptor subfamily 0, group B, member 1 (DAX1; NR0B1). [Related pubchem assays (depositor defined):AID504766, AID504790]. It is filed as functional.

Test [3] is described as follows: microbe, parasite or virus in culture. It is filed as functional. Particulars: Mycobacterium tuberculosis.
The subject of test [4] is HEK293. As to the kind of experiment: NOD2 signaling inhibitors in MDP-stimulated cells, cell-based, uHTS, luminescence (AID 2001). Type of test: functional. As to conditions: Homo sapiens.
Test [5] in a line: HepG2 cell cytotoxicity, dose response, cytotoxicity control, plate reader, cherry-pick, antagonist series (AID 743416). Type of test: functional, cell-based.
Test [6] in a line: THP-1 cell cytotoxicity, dose response, cytotoxicity control for non-replicating M. tuberculosis project (AID 489025). It is filed as functional.
Test [7] is described as follows: A549 cell cytotoxicity, dose response, cytotoxicity control, plate reader, cherry-pick, antagonist series (AID 743412). It is filed as functional, cell-based.
For test [8], the target named is T2, Microphthalmia-associated transcription factor (Homo sapiens, UniProt O75030).
T2 sequence (O75030 whole entry): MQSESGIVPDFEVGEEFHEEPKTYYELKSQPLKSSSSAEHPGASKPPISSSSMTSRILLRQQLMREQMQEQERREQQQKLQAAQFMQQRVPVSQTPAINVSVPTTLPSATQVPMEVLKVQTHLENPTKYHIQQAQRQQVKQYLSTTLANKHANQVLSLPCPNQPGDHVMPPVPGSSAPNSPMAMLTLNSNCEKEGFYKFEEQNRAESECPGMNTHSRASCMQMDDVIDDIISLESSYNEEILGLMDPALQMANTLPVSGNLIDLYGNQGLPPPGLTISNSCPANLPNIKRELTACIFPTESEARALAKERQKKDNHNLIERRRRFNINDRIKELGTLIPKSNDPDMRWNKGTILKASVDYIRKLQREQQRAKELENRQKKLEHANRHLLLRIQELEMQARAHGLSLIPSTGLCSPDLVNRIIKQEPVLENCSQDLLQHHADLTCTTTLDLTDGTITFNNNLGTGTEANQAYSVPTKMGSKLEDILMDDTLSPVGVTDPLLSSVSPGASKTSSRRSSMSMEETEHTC
As to the kind of experiment: TRPM1 promoter luciferase signal decrease, dose response, MITF inhibitor project, cell-based, SK-MEL-5, cherry-picked, set 3 (AID 493073).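 Further: SK-MEL-5 melanoma cells with luciferase driven by the MITF target TRPM1 promoter.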 Type of test: functional.

The nature of test [9]: MC4R antagonists, dose response, counter-screen for LGR2 antagonist project, cell-based, plate reader, cherry pick (AID 743444).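 Further: transfected HEK 293 cells stimulated with alpha-MSH peptide; potency of inhibitors of the alpha-MSH evoked signal.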 It is filed as functional.
Test [10] can be described thus: cells. Type of test: functional.
Test [11] can be described thus: LGR2 antagonists, dose response, cell-based, HEK293, CRE-luciferase reporter, cherry pick, set 2 (AID 743343).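 Further: transfected cells were stimulated with diluted bursicon conditioned medium after compound addition.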 It is filed as functional. On the technique in general: A reporter such as luciferase makes a cellular process visible.
Test [12] addresses T3, Protein RecA (Mycobacterium tuberculosis, UniProt P9WHJ3).
T3 sequence (P9WHJ3 whole entry): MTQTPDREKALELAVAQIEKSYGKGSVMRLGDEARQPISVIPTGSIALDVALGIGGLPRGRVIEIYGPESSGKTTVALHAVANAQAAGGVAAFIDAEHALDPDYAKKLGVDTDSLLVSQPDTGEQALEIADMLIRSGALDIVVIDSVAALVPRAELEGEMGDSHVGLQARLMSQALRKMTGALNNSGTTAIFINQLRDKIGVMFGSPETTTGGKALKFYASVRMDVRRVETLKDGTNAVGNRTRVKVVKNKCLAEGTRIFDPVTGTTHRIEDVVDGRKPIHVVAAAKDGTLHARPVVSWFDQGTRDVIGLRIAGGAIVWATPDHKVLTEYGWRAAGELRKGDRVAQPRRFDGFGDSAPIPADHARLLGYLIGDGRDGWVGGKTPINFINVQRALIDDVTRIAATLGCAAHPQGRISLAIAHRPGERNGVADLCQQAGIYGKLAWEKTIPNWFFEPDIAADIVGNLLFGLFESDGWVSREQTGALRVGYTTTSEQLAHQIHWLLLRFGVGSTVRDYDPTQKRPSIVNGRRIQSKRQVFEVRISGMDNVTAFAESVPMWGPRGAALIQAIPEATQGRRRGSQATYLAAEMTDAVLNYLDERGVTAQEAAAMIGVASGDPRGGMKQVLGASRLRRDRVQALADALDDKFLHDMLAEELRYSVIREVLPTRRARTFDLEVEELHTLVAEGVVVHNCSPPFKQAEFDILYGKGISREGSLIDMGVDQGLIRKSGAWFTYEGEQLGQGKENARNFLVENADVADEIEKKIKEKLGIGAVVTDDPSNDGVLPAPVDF
As to the kind of experiment: Fluorescence Cell-Free Homogeneous Dose Retest to Identify Inhibitors of RecA-Intein Splicing Activity. [Related pubchem assays (depositor defined):AID2097, AID2223, AID489010, AID492950]. It is filed as functional.

Test [13] has as its target T4, Replicative DNA helicase DnaB (Mycobacterium tuberculosis, UniProt P9WMR3).
T4 sequence (P9WMR3 whole entry): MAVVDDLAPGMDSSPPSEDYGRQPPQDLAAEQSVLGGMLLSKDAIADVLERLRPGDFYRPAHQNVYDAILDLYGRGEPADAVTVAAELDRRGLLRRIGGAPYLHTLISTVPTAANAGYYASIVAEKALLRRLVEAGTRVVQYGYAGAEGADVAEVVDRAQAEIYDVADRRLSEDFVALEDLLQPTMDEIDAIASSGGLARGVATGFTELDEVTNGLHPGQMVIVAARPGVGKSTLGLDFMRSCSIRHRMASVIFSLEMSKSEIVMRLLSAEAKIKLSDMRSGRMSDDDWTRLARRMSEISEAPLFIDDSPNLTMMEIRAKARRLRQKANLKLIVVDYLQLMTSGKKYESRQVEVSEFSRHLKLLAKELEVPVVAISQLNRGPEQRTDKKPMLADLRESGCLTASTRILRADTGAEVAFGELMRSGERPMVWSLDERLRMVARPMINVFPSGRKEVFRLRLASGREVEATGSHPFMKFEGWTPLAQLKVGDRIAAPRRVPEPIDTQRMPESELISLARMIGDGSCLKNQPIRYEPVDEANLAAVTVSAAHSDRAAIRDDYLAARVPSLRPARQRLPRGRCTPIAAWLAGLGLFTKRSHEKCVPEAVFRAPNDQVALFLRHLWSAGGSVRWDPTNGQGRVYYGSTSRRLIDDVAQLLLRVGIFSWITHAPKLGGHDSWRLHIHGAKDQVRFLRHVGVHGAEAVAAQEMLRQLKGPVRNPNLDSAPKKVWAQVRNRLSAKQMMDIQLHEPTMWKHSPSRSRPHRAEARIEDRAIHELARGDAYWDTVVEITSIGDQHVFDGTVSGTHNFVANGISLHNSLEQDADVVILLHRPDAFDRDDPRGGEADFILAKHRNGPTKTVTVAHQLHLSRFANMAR
As to the kind of experiment: DnaB intein splicing inhibitors, dose response, biochemical, cell-free fluorescence (AID 449749). It is filed as functional.

Test [14] is described as follows: HEK293 cell cytotoxicity, dose response, cytotoxicity control, plate reader, cherry-picked samples (AID 743446). Type of test: functional, cell-based.
In test [15] the test system is HEK293. As to the kind of experiment: NOD1 signaling inhibitors, primary screen, cell-based, luminescence, uHTS (AID 1578). Type of test: functional. As to conditions: Homo sapiens.
The test system of test [16] is HEK293. As to the kind of experiment: cells. Type of test: functional, cell-based. Particulars: Homo sapiens. This is another data set of the same source.
Test [17] concerns HEK293. As to the kind of experiment: cells. It is filed as functional, cell-based. Particulars: Homo sapiens. This is another data set of the same source.
Test [18] deals with T5, ATP-dependent translocase ABCB1 (Homo sapiens, UniProt P08183). As to the kind of experiment: ABCG2 efflux pump inhibitor potency, dose response, Ig-MXP3 cells, JC-1, flow cytometry, set 2 (AID 504566).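 Further: flow cytometry median green fluorescence of retained JC-1 dye; potency of efflux pump inhibition measured as rising substrate retention.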 Particulars: read-out: EC50_MICROM_. It is filed as functional. (A flow cytometer gives signals particle by particle.)
The target of test [19] is T5, ATP-dependent translocase ABCB1. As to the kind of experiment: ABCB1 efflux inhibitor potency, dose response, Jurkat-DNR cells, JC-1, flow cytometry, set 2 (AID 504569).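 Further: potency of pump inhibitors that raise cellular JC-1 green fluorescence up to the nicardipine level.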 It is filed as functional. Particulars: read-out: EC50_MICROM_.
In test [20] the target is T6, Rac GTPase-activating protein 1 (Homo sapiens, UniProt Q9H0H5).
T6 sequence (Q9H0H5 whole entry): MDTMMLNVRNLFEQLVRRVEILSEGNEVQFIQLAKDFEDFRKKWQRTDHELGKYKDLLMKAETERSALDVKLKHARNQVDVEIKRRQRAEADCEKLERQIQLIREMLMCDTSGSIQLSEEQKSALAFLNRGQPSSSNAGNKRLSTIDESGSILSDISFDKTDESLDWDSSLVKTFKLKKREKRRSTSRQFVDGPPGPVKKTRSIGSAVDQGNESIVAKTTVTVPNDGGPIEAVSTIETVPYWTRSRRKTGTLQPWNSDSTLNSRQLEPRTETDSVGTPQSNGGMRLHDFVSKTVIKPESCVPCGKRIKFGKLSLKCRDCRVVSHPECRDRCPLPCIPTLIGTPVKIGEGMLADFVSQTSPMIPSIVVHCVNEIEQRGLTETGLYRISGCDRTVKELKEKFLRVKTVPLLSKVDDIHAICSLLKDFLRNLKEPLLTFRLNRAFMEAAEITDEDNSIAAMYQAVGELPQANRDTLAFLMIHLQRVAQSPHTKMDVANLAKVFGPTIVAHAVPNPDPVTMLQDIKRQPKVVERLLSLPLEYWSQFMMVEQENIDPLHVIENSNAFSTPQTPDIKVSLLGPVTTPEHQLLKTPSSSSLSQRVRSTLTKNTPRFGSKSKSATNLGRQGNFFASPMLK
As to the kind of experiment: MgcRacGAP GTPase-activating activity inhibitors, confirmation, biochemical, ADP Hunter fluorescence, primary and confirmatory (AID 624330). It is filed as functional.

Test [21] concerns the target T7, Alkaline phosphatase, tissue-nonspecific isozyme (Homo sapiens, UniProt P05186).
T7 sequence (P05186 whole entry): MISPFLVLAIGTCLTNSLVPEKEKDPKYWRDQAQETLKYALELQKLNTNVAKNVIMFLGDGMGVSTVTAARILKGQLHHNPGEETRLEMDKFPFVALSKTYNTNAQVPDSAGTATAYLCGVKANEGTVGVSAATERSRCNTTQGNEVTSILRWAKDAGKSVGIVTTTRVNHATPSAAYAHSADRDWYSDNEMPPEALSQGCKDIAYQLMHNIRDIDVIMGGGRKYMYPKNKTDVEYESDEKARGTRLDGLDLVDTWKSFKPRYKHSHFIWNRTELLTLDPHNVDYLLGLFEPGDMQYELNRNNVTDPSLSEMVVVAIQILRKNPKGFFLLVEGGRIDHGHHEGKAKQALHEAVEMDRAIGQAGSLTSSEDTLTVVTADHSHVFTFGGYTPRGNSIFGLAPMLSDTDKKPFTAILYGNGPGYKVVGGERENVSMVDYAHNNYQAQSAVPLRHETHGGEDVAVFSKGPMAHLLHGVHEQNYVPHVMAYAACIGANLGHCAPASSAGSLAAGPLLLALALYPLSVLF
As to the kind of experiment: human TNAP enzyme inhibitors, SAR follow-up, biochemical, luminescent, dose response (AID 1056).

T5 sequence (P08183 whole entry): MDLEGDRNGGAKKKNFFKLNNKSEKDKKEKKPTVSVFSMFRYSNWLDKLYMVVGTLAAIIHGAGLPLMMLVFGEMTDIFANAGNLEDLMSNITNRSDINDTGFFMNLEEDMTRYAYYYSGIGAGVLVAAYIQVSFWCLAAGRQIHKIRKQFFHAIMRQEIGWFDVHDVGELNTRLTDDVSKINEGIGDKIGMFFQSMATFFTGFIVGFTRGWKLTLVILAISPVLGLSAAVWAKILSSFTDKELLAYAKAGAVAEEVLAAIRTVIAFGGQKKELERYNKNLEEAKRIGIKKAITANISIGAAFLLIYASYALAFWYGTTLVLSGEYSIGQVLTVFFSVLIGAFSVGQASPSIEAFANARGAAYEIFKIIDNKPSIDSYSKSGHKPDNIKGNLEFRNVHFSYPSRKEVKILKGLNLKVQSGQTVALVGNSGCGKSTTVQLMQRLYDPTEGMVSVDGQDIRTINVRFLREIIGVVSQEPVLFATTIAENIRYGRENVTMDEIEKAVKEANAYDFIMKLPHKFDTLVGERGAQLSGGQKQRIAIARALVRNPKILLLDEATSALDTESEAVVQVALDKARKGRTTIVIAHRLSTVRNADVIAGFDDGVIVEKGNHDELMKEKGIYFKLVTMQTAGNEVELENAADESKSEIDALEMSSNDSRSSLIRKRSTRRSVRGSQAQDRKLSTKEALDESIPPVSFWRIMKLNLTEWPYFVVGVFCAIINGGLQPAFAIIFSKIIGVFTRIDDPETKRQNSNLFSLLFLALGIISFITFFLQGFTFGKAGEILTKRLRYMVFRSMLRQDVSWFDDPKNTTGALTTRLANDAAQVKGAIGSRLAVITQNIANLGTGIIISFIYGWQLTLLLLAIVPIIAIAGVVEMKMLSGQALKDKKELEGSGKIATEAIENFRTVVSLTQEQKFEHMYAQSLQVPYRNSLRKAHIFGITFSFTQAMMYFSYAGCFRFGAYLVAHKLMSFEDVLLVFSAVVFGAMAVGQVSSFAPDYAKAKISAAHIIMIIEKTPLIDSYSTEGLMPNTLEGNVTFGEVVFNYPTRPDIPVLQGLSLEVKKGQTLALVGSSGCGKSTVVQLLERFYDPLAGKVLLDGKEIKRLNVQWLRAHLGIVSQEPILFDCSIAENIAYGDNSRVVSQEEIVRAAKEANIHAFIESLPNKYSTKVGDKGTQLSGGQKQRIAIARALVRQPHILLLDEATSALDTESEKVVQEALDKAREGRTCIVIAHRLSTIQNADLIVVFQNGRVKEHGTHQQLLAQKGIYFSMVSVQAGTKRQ

For the compound `COc1ccc(-c2cc(=O)c3ccccc3o2)cc1` [4'-METHOXYFLAVONE], the IC50 in test [1] and in test [2] was > 67.5 µM (inactive) throughout.
With `CC(=O)c1ccc(Sc2nnnn2-c2ccccc2)c([N+](=O)[O-])c1`, the CC50 in test [3] was > 40 µM (active); in [6] it was 14.9 µM (active). Further, the IC50 was 3.13 µM (active) in test [4], 26.2 µM (active) in [10], > 20 µM (inactive) in test [16] and 2.12 µM (active) in test [17]. Further, the AC50 was > 52 µM (inactive) in test [5]; 49.7 µM (active) in [7]; 7.82 µM (active) in test [8]; 9.52 µM (active) in test [9]; 10.8 µM (active) in [11]; 5.34 µM (active) in [13]. In addition, the AC50 in test [14] is 33.2 µM (active). The EC50 was 14.5 µM (active) in test [12] and 14.3 µM (active) in [15].
As for `Cc1cccnc1NC(=O)C(C)N1C(=O)c2ccccc2C1=O` (configuration not stated), the IC50 in test [1] and in [2] was > 67.5 µM (inactive) throughout.
Regarding `CN(Cc1ccc(C(C)(C)C)cc1)C(=O)C1CCN(C(=O)Nc2ccccc2)CC1`, the IC50 in [1] and in [2] was > 67.5 µM (inactive) in each case.
As to `COc1cccc(C(=O)NC(=O)Nc2cc(C)[nH]n2)c1`, the IC50 in test [1] and in test [2] was > 67.5 µM (inactive) in each case.
Turning to `Cc1cc(N2CCN(C(=O)c3ccco3)CC2)n2nc(-c3ccc(F)cc3)cc2n1`, the EC50 in [18] is 2.87 µM (active); in test [19], 10.8 µM (active).
As to `Cc1cc(C)nc(SCC(=O)c2ccc(O)c(O)c2)n1`, the values for the IC50 in test [20] and in [21] were 30.6 µM (active) and 5.76 µM (active), respectively.
